# Test results: patent US8192962B2, “Processes for detecting toxic substances” (Daikin Industries, Ltd., priority 2001, dated 2012)
# System: Energy system protein genes
# Test: DNA chip mRNA expression in yeast, energy system protein genes (Table 4)
# Format: cell-based, Saccharomyces cerevisiae S288C
# Protocol: Yeast (Saccharomyces cerevisiae S288C (α SUC2mal mel gap2 CUP1)) were incubated at 25° C. on YPD medium (yeast extract 1%, polypepton 2%, glucose 2%). One of toxic chemical substances was added to the cells at logarithmic growth phase, and the cells were further incubated for two hours. Cells were cultured without any chemical substance in the same condition, and were used as control. Concentrations of the chemical substances were defined to inhibit the growth of the yeast but not lead to death.
# After completion of the incubation, the culture was centrifuged to collect the cells. To the cells, sodium acetate buffer (50 mM sodium acetate, 10 mM EDTA, 1% SDS) was added, and the mixture was shaken at 65° C. for five minutes, followed by returning to room temperature, and obtaining the supernatant, of which the procedures were repeated two times. To the supernatant, ½ amount of a solution of phenol/chloroform was added, and the mixture was centrifuged to give a supernatant, which was added with an equal amount of chloroform, and the mixture was centrifuged to give a supernatant. To the supernatant, an equal amount of isopropanol containing 0.3 M sodium acetate was added, and the mixture was allowed to stand at room temperature for 30 minutes, after which the mixture was centrifuged to give a sediment of the whole RNAs. Seventy % ethanol was added to the sediment, and the mixture was again centrifuged to give a sediment, which was then dried and dissolved in water. mRNA was isolated from the whole RNAs as followings. In view of the fact that a poly A chain is attached to the 3′ terminus of mRNA, a polynucleotide having a poly T structure which was immobilized on the surface of latex beads was used to trap the mRNA, and then the mRNA was washed and eluted with spine column (Oligotex-dT30<Super>mRNA Purification Kit, Takara). Reverse transcription of the mRNA was conducted with a reverse transcriptase (Super Script II Reverse Transcriptase; catalogue No. 18064-014, GibcoBRL) using fluorescence-labeled nucleotides to give cDNAs that were introduced with Cy3-dUTP or Cy5-dUTP during the reverse transcription.
# The labeled cDNAs were dissolved in TE buffer (10mM Tris-HCl/1 mM EDTA, pH8.0), and the solution was dropped on the DNA chip containing the whole genes of yeast (DNA Chip Research Inc. Japan) so that the cDNAs were hybridized on the DNA chip at 65° C. for over 12 hours. The fluoresces intensity of the DNA chip was read with a scanner, and the ratio relative to the fluorescence intensity resulting from the absence of chemical substance was estimated as the following, which is shown in Tables 1 to 9: […]
compound,measurement,setting,value
"Cl[C@H]1[C@H](Cl)[C@@H](Cl)[C@@H](Cl)[C@H](Cl)[C@H]1Cl [(7), γ-hexachlorocyclohexane]",The level of expressed mRNA in the presence of chemical substance/The level of expressed mRNA in the absence of chemical substance,yeast gene YJR009C,1.6
same,The level of expressed mRNA in the presence of chemical substance/The level of expressed mRNA in the absence of chemical substance,yeast gene YJR048W,0.3
same,The level of expressed mRNA in the presence of chemical substance/The level of expressed mRNA in the absence of chemical substance,"yeast gene YJR121W, cells incubated two hours with the chemical substance",1.0
same,The level of expressed mRNA in the presence of chemical substance/The level of expressed mRNA in the absence of chemical substance,yeast gene YJR155W,1.7
same,The level of expressed mRNA in the presence of chemical substance/The level of expressed mRNA in the absence of chemical substance,"yeast gene YKL016C, cells incubated two hours with the chemical substance",1.5
same,The level of expressed mRNA in the presence of chemical substance/The level of expressed mRNA in the absence of chemical substance,"yeast gene YKL060C, cells incubated two hours with the chemical substance",1.2
same,The level of expressed mRNA in the presence of chemical substance/The level of expressed mRNA in the absence of chemical substance,"yeast gene YKL141W, cells incubated two hours with the chemical substance",0.5
same,The level of expressed mRNA in the presence of chemical substance/The level of expressed mRNA in the absence of chemical substance,"yeast gene YKL148C, cells incubated two hours with the chemical substance",0.6
same,The level of expressed mRNA in the presence of chemical substance/The level of expressed mRNA in the absence of chemical substance,"yeast gene YKR009C, cells incubated two hours with the chemical substance",1.0
same,The level of expressed mRNA in the presence of chemical substance/The level of expressed mRNA in the absence of chemical substance,"yeast gene YKR058W, cells incubated two hours with the chemical substance, 25° C., YPD medium",1.4
same,The level of expressed mRNA in the presence of chemical substance/The level of expressed mRNA in the absence of chemical substance,yeast gene YKR097W,3.7
same,The level of expressed mRNA in the presence of chemical substance/The level of expressed mRNA in the absence of chemical substance,"yeast gene YLL041C, cells incubated two hours with the chemical substance",0.3
same,The level of expressed mRNA in the presence of chemical substance/The level of expressed mRNA in the absence of chemical substance,"yeast gene YLR038C, cells incubated two hours with the chemical substance",1.0
same,The level of expressed mRNA in the presence of chemical substance/The level of expressed mRNA in the absence of chemical substance,"yeast gene YLR044C, cells incubated two hours with the chemical substance",1.3
same,The level of expressed mRNA in the presence of chemical substance/The level of expressed mRNA in the absence of chemical substance,"yeast gene YLR134W, cells incubated two hours with the chemical substance",1.1
same,The level of expressed mRNA in the presence of chemical substance/The level of expressed mRNA in the absence of chemical substance,"yeast gene YLR258W, cells incubated two hours with the chemical substance",1.8
same,The level of expressed mRNA in the presence of chemical substance/The level of expressed mRNA in the absence of chemical substance,"yeast gene YLR284C, cells incubated two hours with the chemical substance",0.8
same,The level of expressed mRNA in the presence of chemical substance/The level of expressed mRNA in the absence of chemical substance,"yeast gene YLR295C, cells incubated two hours with the chemical substance, 25° C., YPD medium",1.1
same,The level of expressed mRNA in the presence of chemical substance/The level of expressed mRNA in the absence of chemical substance,"yeast gene YLR304C, cells incubated two hours with the chemical substance",0.6
same,The level of expressed mRNA in the presence of chemical substance/The level of expressed mRNA in the absence of chemical substance,yeast gene YLR345W,1.2
same,The level of expressed mRNA in the presence of chemical substance/The level of expressed mRNA in the absence of chemical substance,"yeast gene YLR354C, cells incubated two hours with the chemical substance",1.1
same,The level of expressed mRNA in the presence of chemical substance/The level of expressed mRNA in the absence of chemical substance,"yeast gene YLR377C, cells incubated two hours with the chemical substance",0.9
same,The level of expressed mRNA in the presence of chemical substance/The level of expressed mRNA in the absence of chemical substance,yeast gene YML087C,1.1
same,The level of expressed mRNA in the presence of chemical substance/The level of expressed mRNA in the absence of chemical substance,"yeast gene YML120C, cells incubated two hours with the chemical substance",0.8
same,The level of expressed mRNA in the presence of chemical substance/The level of expressed mRNA in the absence of chemical substance,"yeast gene YML129C, cells incubated two hours with the chemical substance",1.8
same,The level of expressed mRNA in the presence of chemical substance/The level of expressed mRNA in the absence of chemical substance,"yeast gene YMR073C, cells incubated two hours with the chemical substance",1.0
same,The level of expressed mRNA in the presence of chemical substance/The level of expressed mRNA in the absence of chemical substance,yeast gene YMR118C,1.0
same,The level of expressed mRNA in the presence of chemical substance/The level of expressed mRNA in the absence of chemical substance,"yeast gene YMR205C, cells incubated two hours with the chemical substance",0.9
same,The level of expressed mRNA in the presence of chemical substance/The level of expressed mRNA in the absence of chemical substance,"yeast gene YMR261C, cells incubated two hours with the chemical substance",1.3
same,The level of expressed mRNA in the presence of chemical substance/The level of expressed mRNA in the absence of chemical substance,"yeast gene YMR267W, cells incubated two hours with the chemical substance, 25° C., YPD medium",1.2
same,The level of expressed mRNA in the presence of chemical substance/The level of expressed mRNA in the absence of chemical substance,"yeast gene YMR323W, cells incubated two hours with the chemical substance",1.1
same,The level of expressed mRNA in the presence of chemical substance/The level of expressed mRNA in the absence of chemical substance,yeast gene YNL071W,1.4
same,The level of expressed mRNA in the presence of chemical substance/The level of expressed mRNA in the absence of chemical substance,"yeast gene YNL202W, cells incubated two hours with the chemical substance",0.9
same,The level of expressed mRNA in the presence of chemical substance/The level of expressed mRNA in the absence of chemical substance,yeast gene YNL241C,3.2
same,The level of expressed mRNA in the presence of chemical substance/The level of expressed mRNA in the absence of chemical substance,yeast gene YNL331C,1.9
same,The level of expressed mRNA in the presence of chemical substance/The level of expressed mRNA in the absence of chemical substance,"yeast gene YOL086C, cells incubated two hours with the chemical substance",1.9
same,The level of expressed mRNA in the presence of chemical substance/The level of expressed mRNA in the absence of chemical substance,yeast gene YOL165C,1.4
same,The level of expressed mRNA in the presence of chemical substance/The level of expressed mRNA in the absence of chemical substance,"yeast gene YOR142W, cells incubated two hours with the chemical substance",1.0
same,The level of expressed mRNA in the presence of chemical substance/The level of expressed mRNA in the absence of chemical substance,"yeast gene YOR178C, cells incubated two hours with the chemical substance",0.9
same,The level of expressed mRNA in the presence of chemical substance/The level of expressed mRNA in the absence of chemical substance,"yeast gene YOR388C, cells incubated two hours with the chemical substance",1.0
same,The level of expressed mRNA in the presence of chemical substance/The level of expressed mRNA in the absence of chemical substance,"yeast gene YPL031C, cells incubated two hours with the chemical substance",1.6
same,The level of expressed mRNA in the presence of chemical substance/The level of expressed mRNA in the absence of chemical substance,"yeast gene YPL061W, cells incubated two hours with the chemical substance",0.5
same,The level of expressed mRNA in the presence of chemical substance/The level of expressed mRNA in the absence of chemical substance,yeast gene YPL088W,3.7
same,The level of expressed mRNA in the presence of chemical substance/The level of expressed mRNA in the absence of chemical substance,yeast gene YPL171C,1.7
same,The level of expressed mRNA in the presence of chemical substance/The level of expressed mRNA in the absence of chemical substance,yeast gene YPL240C,1.4
same,The level of expressed mRNA in the presence of chemical substance/The level of expressed mRNA in the absence of chemical substance,"yeast gene YPL262W, cells incubated two hours with the chemical substance",1.3
same,The level of expressed mRNA in the presence of chemical substance/The level of expressed mRNA in the absence of chemical substance,"yeast gene YPL275W, cells incubated two hours with the chemical substance",1.1
same,The level of expressed mRNA in the presence of chemical substance/The level of expressed mRNA in the absence of chemical substance,"yeast gene YPL276W, cells incubated two hours with the chemical substance",1.2
same,The level of expressed mRNA in the presence of chemical substance/The level of expressed mRNA in the absence of chemical substance,"yeast gene YPR048W, cells incubated two hours with the chemical substance",0.9
same,The level of expressed mRNA in the presence of chemical substance/The level of expressed mRNA in the absence of chemical substance,"yeast gene YPR184W, cells incubated two hours with the chemical substance",1.3
